The values below come from US20220333153A1, “ULTRASENSITIVE ELECTROCHEMICAL BIOSENSORS” (MOLECULAR WAREHOUSE, LTD., priority 2016, published 2022).

Some results are limits rather than exact numbers.

The nature of assay [1]: GDH enzymatic activity of the chimeric proteins themselves. It counts as biochemical. As to the method: (§1) The GDH enzyme assay was performed as described by Yu et al.^20 Briefly, the 1.5-mL assay system consisted of 20 mM glucose, 0.6 mM phenazine methosulfate, 0.06 mM […], 10 mM MOPS (pH 7.0), and corresponding concentration of CaCl2 and enzyme. The enzymatic assay was performed at 25° C. by monitoring the reduction in the absorbance of […] at 600 nm.
We conjectured that dislocation of either of these residues will impact the catalysis and if carried out in a reversible fashion could utilized for controlling enzymes activity. To test this idea we inserted calmodulin (CaM) domain into GDH at the position 330 and produced the resulting CaM-GDH chimeric protein (SEQ ID NO: 10) in recombinant form. […] The activity of fully activated fusion represented 50% of activity of the wild-type protein. […] We therefore concluded that we successfully constructed a peptide regulated GDH biosensor module.
We next decided to test if the developed allosteric module can be used to construct a generic biosensor architecture. To this end we fused the developed CaM-GDH chimera C-terminally with rapamycin-binding FKBP domain (SEQ ID NO: 11) and produced the protein in recombinant form. […] We then constructed a fusion between FKBP binding partner FRB and CaM-BP that would associate with the former reporter molecule in the rapamycin dependent fashion. […]

Assay [2] has as its system affinity clamp-GDH chimera (SEQ ID NO: 25). The assay can be described thus: OFF switch: inhibition of GDH activity of affinity clamp-GDH chimera by PDZ peptides. It counts as biochemical. The settings on record: 10 nM chimera; 1 μM strong or 2 μM weak peptide ligand.
Excerpt: (§2) FIG. 5. Development and applications of an OFF switch biosensor based on GDH. […] (C) as in B but using the biosensor with the optimized linkers between the affinity clamp and the GDH, titrated with the increasing concentrations of the strong ligand peptide. (D) A dissociative biosensor architecture based on the developed affinity clamp-GDH biosensor. The star denotes the ligand either genetically fused or conjugated to the regulatory domain. (E) Exemplification of the design shown in D with a biosensor for IL18: the ligand is IL18 and the binder is IL18 binding protein. […] (G) As in D but using a binder that competitively associates with the receptor domain and is dislodged by the binding of the ligand.
as §1
So far all presented biosensor architectures were designed to increase the GDH activity upon association with the analyte. While this is a common strategy it creates potential problems when binding of two protein modules to a single small molecule is required. […]

The subject of assay [3] is affinity clamp-GDH IL18 binding protein chimera (SEQ ID NO: 37) with IL18-affinity-clamp ligand fusion (SEQ ID NO: 38). The assay can be described thus: IL18 dissociative biosensor, GDH activity. It counts as biochemical. The settings on record: 10 nM SEQ ID NO: 37, 50 nM SEQ ID NO: 38; 0 to 2.5 μM IL18.
Excerpt: as §2
The developed GDH —based OFF switch can be converted into biosensors of small molecules and biological polymers such as proteins and nucleic acids by fusing it to the appropriate binding domains (FIG. 5D) FIG. 5E depicts an IL18 biosensor that was generated incorporating a GDH-based OFF switch based on a fusion with IL18 binding protein, where the ligand is IL18 and the binder IL18 binding protein.

The target of assay [4] is PDZ domain binding peptide. The settings on record: read-out: affinity for PDZ domain binding peptide; cited from earlier work.

As to “CaM-GDH chimeric protein: PQQ-GDH with calmodulin domain inserted at position 330, recombinant”, in assay [1] (absence of CaM-BP / activating ligand), the “GDH activity of the protein without activating ligand” value is given as “some GDH activity”. In addition, in assay [1] (fully activated by CaM-BP), the “activity of fully activated fusion as share of activity of the wild-type protein” value was 50%. Take “RGSIDTWV (PDZ peptide (ePDZ ligand, high affinity)) [SEQ ID NO: 27]”: in assay [2], the “inhibition of GDH activity of affinity clamp-GDH chimera” value is reported as “stronger inhibition of GDH activity than the weaker ligand”.

B1: IL18: cytokine analyte of the dissociative biosensor (protein)
chain: GYFGKLESKLSVIRNLNDQVLFIDQGNRPLFEDMTDSDSRDNAPRTIFIISMYKDSQPRGMAVTISVKSEKISTLSSENKIISFKEMNPPDNIKDTKSDIIFFQRSVPGHDNKMQFESSSYEGYFLASEKERDLFKLILKKEDELGDRSIMFTVQNEDG
modifications: Interleukin-18
notes: cytokine analyte of the dissociative biosensor
For the molecule B1, the “detection by IL18 biosensor (GDH activity)” value in assay [3] is “dose-dependent detection”.

B2: affinity clamp: circularly permutated Erbin PDZ domain linked to engineered fibronectin type III (FN3) (protein)
chain: EDAPESPELGFSISGGVGGRGNPFRPDDDGIFVTRVQPEGPASKLLQPGDKIIQANGYSFINIEHGQAVSLLKTFQNTVELIIVREVGNGAKQEIRVRVEKDGGSGGVSSVPTNLEVVAATPTSLLISWDAYRELPVSYYRITYGETGGNSPVQEFTVPGSKSTATISGLKPGVDYTITVYAHYNYHYYSSPISINYRGPG
modifications: ePDZ domain
B2: the Kd in assay [4] was less than 1 nM.
